Where a name gives a salt, the structure may show the parent alone. Read-outs that look alike come from different tables or passages of the source.
Tests used:
CDK2/Cyclin A = CDK2/Cyclin A (Homo sapiens, UniProt P24941); experiment: Inhibition of CDK2/Cyclin A Retinoblastoma Kinase Activity; format: biochemical; details: apparent Ki, CDK2/proteolyzed cyclin A, Rb fragment substrate, 25 μM ATP
How it was run: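 Baculovirus-expressed CDK2 complexed with proteolyzed cyclin A (10 or 19 nM), Rb fragment substrate, 25 μM [32P/33P]ATP, HEPES pH 7.4, 30 °C for 60 or 75 min under initial-rate conditions. Filter capture and phosphorimager readout; apparent Ki fitted to competitive or tight-binding competitive inhibition.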

[1] = target: human CDK4 and genetically truncated (1-264) cyclin D3 (Homo sapiens, UniProt P11802); experiment: Inhibition of CDK4/Cyclin D Retinoblastoma Kinase Activity; format: biochemical; details: apparent Ki, CDK4/truncated cyclin D3, Rb fragment substrate, 25 μM ATP
Chain of human CDK4 and genetically truncated (1-264) cyclin D3 (P11802 whole entry, the tested form may be a part): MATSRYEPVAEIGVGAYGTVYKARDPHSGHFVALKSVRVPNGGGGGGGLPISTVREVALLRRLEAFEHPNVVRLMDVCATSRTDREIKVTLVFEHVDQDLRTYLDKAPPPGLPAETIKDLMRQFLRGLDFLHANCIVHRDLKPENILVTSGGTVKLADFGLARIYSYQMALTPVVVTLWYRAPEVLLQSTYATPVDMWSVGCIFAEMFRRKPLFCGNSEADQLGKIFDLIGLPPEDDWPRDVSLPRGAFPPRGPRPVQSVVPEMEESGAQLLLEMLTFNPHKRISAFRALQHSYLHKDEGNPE
Chain of human CDK4 and genetically truncated (1-264) cyclin D3 (P30281 1-264 partner): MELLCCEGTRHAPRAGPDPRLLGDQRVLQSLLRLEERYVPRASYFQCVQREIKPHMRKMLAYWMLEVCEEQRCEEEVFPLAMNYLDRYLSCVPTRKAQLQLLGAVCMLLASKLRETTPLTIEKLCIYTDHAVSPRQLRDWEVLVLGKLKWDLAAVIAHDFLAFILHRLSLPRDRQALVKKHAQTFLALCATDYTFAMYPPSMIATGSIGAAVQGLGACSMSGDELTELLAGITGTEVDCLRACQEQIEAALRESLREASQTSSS
How it was run: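 Human CDK4/truncated cyclin D3 (1-264) complex from baculovirus-infected insect cells, 5 nM, phosphorylating Rb fragment (residues 386-928, His-tagged) with 25 μM [32/33P]ATP in HEPES pH 7.4, MgCl2, 2% DMSO at 30° C. for 20 min (60 min for tight binders). Filter-captured radioactivity by phosphorimager; apparent Ki from competitive or tight-binding fits.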

HCT-116 cell line = experiment: Inhibition of cell growth, tetrazolium salt (MTT) assay; format: cell-based; details: Homo sapiens, HCT-116, 120 h, MTT, three to five days, read-out: HCT-116 IC50
How it was run: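 First, cells were seeded in McCoy's 5A medium and held 4 h. Next, inhibitor concentrations in 0.5% (v/v) DMSO were applied for three to five days at 37° C, 5% CO2. Finally, after 4 h with 0.2 mg/mL MTT and medium removal, solubilized formazan was measured at 540 nm.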

Ki (CDK2/Cyclin A) [nM] | Ki [1] [nM] | IC50 (HCT-116 cell line; first HCT-116 column (c4)) [nM] | IC50 (HCT-116 cell line; second HCT-116 column (c5)) [nM] | SMILES
7.9 | 6.4 | 460 | 3000 | Nc1nc(NC2CCN(S(=O)(=O)CCSC3CCCC3)CC2)sc1C(=O)c1c(F)cccc1F [Example K38, {4-Amino-2-[1-(2-cyclopentylsulfanyl-ethanesulfonyl)-piperidin-4-ylamino]-thiazol-5-yl}-(2,6-difluoro-phenyl)-methanone Trifluoroacetic Acid Salt.]
1.4 | 1.8 | 44 | 170 | CN(CCS(=O)(=O)N1CCC(Nc2nc(N)c(C(=O)c3c(F)cccc3F)s2)CC1)Cc1ccccc1 [Example K39, (4-Amino-2-{1-[2-(benzyl-methyl-amino)-ethanesulfonyl]-piperidin-4-ylamino}-thiazol-5-yl)-(2,6-difluoro-phenyl)-methanone]
0.63 | 1.9 | 70 | 170 | Cc1cccc(CNCCS(=O)(=O)N2CCC(Nc3nc(N)c(C(=O)c4c(F)cccc4F)s3)CC2)c1 [Example K41, (4-Amino-2-{1-[2-(3-methyl-benzylamino)-ethanesulfonyl]-piperidin-4-ylamino}-thiazol-5-yl)-(2,6-difluoro-phenyl)-methanone]
1 | 1.9 | 50 | 150 | CC[C@H](NCCS(=O)(=O)N1CCC(Nc2nc(N)c(C(=O)c3c(F)cccc3F)s2)CC1)c1ccccc1 [Example K42, (4-Amino-2-{1-[2-(1S-phenyl-propylamino)-ethanesulfonyl]-piperidin-4-ylamino}-thiazol-5-yl)-(2,6-difluoro-phenyl)-methanone]
0.49 | 2.5 | 100 | 360 | CC1CC(NCCS(=O)(=O)N2CCC(Nc3nc(N)c(C(=O)c4c(F)cccc4F)s3)CC2)CC(C)(C)C1 (stereo not drawn) [Example K44]
0.82 | 1 | 50 | 170 | Nc1nc(NC2CCN(S(=O)(=O)CCNCc3cccc(F)c3F)CC2)sc1C(=O)c1c(F)cccc1F [Example K45, (4-Amino-2-{1-[2-(2,3-difluoro-benzylamino)-ethanesulfonyl]-piperidin-4-ylamino}-thiazol-5-yl)-(2,6-difluoro-phenyl)-methanone]
0.81 | 2.1 | 130 | 260 | CC[C@@H](NCCS(=O)(=O)N1CCC(Nc2nc(N)c(C(=O)c3c(F)cccc3F)s2)CC1)c1ccccc1 [Example K46, (4-Amino-2-{1-[2-(1 R-phenyl-propylamino)-ethanesulfonyl]-piperidin-4-ylamino}-thiazol-5-yl)-(2,6-difluoro-phenyl)-methanone]
5 | 1.3 | 280 | 800 | Nc1nc(NC2CCN(S(=O)(=O)CCN(CC3CC3)CC3CC3)CC2)sc1C(=O)c1c(F)cccc1F [Example K54, (4-Amino-2-{1-[2-(bis-cyclopropylmethyl-amino)-ethanesulfonyl]-piperidin-4-ylamino}-thiazol-5-yl)-(2,6-difluoro-phenyl)-methanone]
0.62 | 0.3 | 78 | > 500 | CN(C)CCSc1ccc(S(=O)(=O)N2CCC(Nc3nc(N)c(C(=O)c4c(F)cccc4F)s3)CC2)cn1 [Example L1, 1-(4-Amino-2-{1-[6-(2-dimethylamino-ethylsulfanyl)-pyridine-3-sulfonyl]-piperidin-4-ylamino}-thiazol-5-yl)-1-(2,6-difluoro-phenyl)-methanone Dihydrochloride.]
1.5 | 2.7 | > 500 | > 500 | Nc1nc(NC2CCN(S(=O)(=O)c3ccc(Sc4ccccn4)nc3)CC2)sc1C(=O)c1c(F)cccc1F [Example L2, 1-(4-Amino-2-{1-[6-(pyridin-2-ylsulfanyl)-pyridine-3-sulfonyl]-piperidin-4-ylamino}-thiazol-5-yl)-1-(2,6-difluoro-phenyl)-methanone Dihydrochloride.]
0.68 | 1.2 | 350 | > 500 | Nc1nc(NC2CCN(S(=O)(=O)c3ccc(SCCc4ccccn4)nc3)CC2)sc1C(=O)c1c(F)cccc1F [Example L3, 1-(4-Amino-2-{1-[6-(2-pyridin-2-yl-ethylsulfanyl)-pyridine-3-sulfonyl]-piperidin-4-ylamino}-thiazol-5-yl)-1-(2,6-difluoro-phenyl)-methanone Hydrochloride.]
0.3 | 1.8 | > 500 | > 500 | Nc1nc(NC2CCN(S(=O)(=O)c3ccc(S)nc3)CC2)sc1C(=O)c1c(F)cccc1F [Example L4, 1-{4-Amino-2-[1-(6-mercapto-pyridine-3-sulfonyl)-piperidin-4-ylamino]-thiazol-5-yl}-1-(2,6-difluoro-phenyl)-methanone Hydrochloride.]
1.5 | 0.67 | 70 | > 500 | CN(C)CCCSc1ccc(S(=O)(=O)N2CCC(Nc3nc(N)c(C(=O)c4c(F)cccc4F)s3)CC2)cn1 [Example L5, 1-(4-Amino-2-{1-[6-(3-dimethylamino-propylsulfanyl)-pyridine-3-sulfonyl]-piperidin-4-ylamino}-thiazol-5-yl)-1-(2,6-difluoro-phenyl)-methanone Dihydrochloride.]
1.5 | 0.95 | 75 | 300 | CN1CCCC1CCSc1ccc(S(=O)(=O)N2CCC(Nc3nc(N)c(C(=O)c4c(F)cccc4F)s3)CC2)cn1 (stereo not drawn) [Example L6, 1-[4-Amino-2-(1-{6-[2-(1-methyl-pyrrolidin-2-yl)-ethylsulfanyl]-pyridine-3-sulfonyl}-piperidin-4-ylamino)-thiazol-5-yl]-1-(2,6-difluoro-phenyl)-methanone Dihydrochloride.]
1.5 | 2.2 | 95 | 300 | Nc1nc(NC2CCN(S(=O)(=O)c3ccc(SCCN4CCOCC4)nc3)CC2)sc1C(=O)c1c(F)cccc1F [Example L7, 1-(4-Amino-2-{1-[6-(2-morpholin-4-yl-ethylsulfanyl)-pyridine-3-sulfonyl]-piperidin-4-ylamino}-thiazol-5-yl)-1-(2,6-difluoro-phenyl)-methanone Dihydrochloride.]
> 500 | 240 | 2800 | 5000 | Nc1nc(NC2CCN(Cc3ccccn3)CC2)sc1C(=O)c1c(F)cccc1F [Example M1, 1-[4-Amino-2-(1-pyridin-2-ylmethyl-piperidin-4-ylamino)-thiazol-5-yl]-1-(2,6-difluoro-phenyl)-methanone]
433 | 33.5 | 2100 | 5000 | Nc1nc(NC2CCN(Cc3ccncc3)CC2)sc1C(=O)c1c(F)cccc1F [Example M2, 1-[4-Amino-2-(1-pyridin-4-ylmethyl-piperidin-4-ylamino)-thiazol-5-yl]-1-(2,6-difluoro-phenyl)-methanone.]
0.28 | 0.49 | 860 | 1600 | Nc1nc(NC2CCN(S(=O)(=O)c3ccc(CCNc4ccccc4O)nc3)CC2)sc1C(=O)c1c(F)cccc1F [Example N1, [4-Amino-2-(1-{6-[2-(2-hydroxy-phenylamino)-ethyl]-pyridine-3-sulfonyl}-piperidin-4-ylamino)-thiazol-5-yl]-(2,6-difluoro-phenyl)-methanone Trifluoroacetic Acid Salt.]
1.2 | 0.49 | 230 | > 500 | Nc1nc(NC2CCN(S(=O)(=O)c3ccc(CCN4CCCC4)nc3)CC2)sc1C(=O)c1c(F)cccc1F [Example N2, (4-Amino-2-{1-[6-(2-pyrrolidin-1-yl-ethyl)-pyridine-3-sulfonyl]-piperidin-4-ylamino}-thiazol-5-yl)-(2,6-difluoro-phenyl)-methanone Hydrochloride Salt.]
1.1 | 0.76 | 170 | > 500 | Nc1nc(NC2CCN(S(=O)(=O)c3ccc(CCN4CCOCC4)nc3)CC2)sc1C(=O)c1c(F)cccc1F [Example N3, (4-Amino-2-{1-[6-(2-morpholin-4-yl-ethyl)-pyridine-3-sulfonyl]-piperidin-4-ylamino}-thiazol-5-yl)-(2,6-difluoro-phenyl)-methanone Hydrochloride Salt.]
1.7 | 0.92 | 360 | > 500 | CN1CCN(CCc2ccc(S(=O)(=O)N3CCC(Nc4nc(N)c(C(=O)c5c(F)cccc5F)s4)CC3)cn2)CC1 [Example N4, [4-Amino-2-(1-{6-[2-(4-methyl-piperazin-1-yl)-ethyl]-pyridine-3-sulfonyl}-piperidin-4-ylamino)-thiazol-5-yl]-(2,6-difluoro-phenyl)-methanone Hydrochloride Salt.]

Source: US20050101595A1, “N-containing cycloalkyl-substituted amino-thiazole derivatives and pharmaceutical compositions for inhibiting cell proliferation and methods for their use” (PFIZER INC., priority 2003, published 2005)
